This note sets out measurements from PMC4876673, “Antitrypanosomal activity of 5-nitro-2-aminothiazole-based compounds” (European Journal of Medicinal Chemistry, 2016).

As a reminder, the IC50 is the concentration that inhibits the measured activity by half. As a reminder, the melting point is the temperature, or range, at which the solid turns liquid.

Where two headings read alike, the source gives them in different places. Bounds are passed on as bounds.

Series [1] has as its system T.b. rhodesiense, strain STIB 900 trypomastigotes. Put plainly: In vitro activity against T. b. rhodesiense, strain STIB 900 trypomastigotes. It counts as cell-based, Trypanosoma brucei rhodesiense. Conditions: for IC50: Trypanosoma brucei, read-out: T.b.r. IC50; for SI (T.b.r.): ratio IC50 in L6 cells/IC50 in T.b. rhodesiense. As to the method: (§1) Compounds in Table 1 were screened for antiparasitic activity against three trypanosomatids: T. cruzi, T. b. rhodesiense and Leishmania donovani. The concentration of compound that inhibits parasite growth by 50% (IC50) was calculated from dose response curves for each parasite (Table 1). In addition, compounds were tested for toxicity in L6 rat skeletal myoblasts, used as host cells for T. cruzi amastigotes, in order to calculate a selectivity index for each parasite (SI = IC50L6/IC50parasite) (Table 1).
(§2) In vitro activity against T. cruzi, T. b. rhodesiense, L. donovani and cytotoxicity assessment using L6 cells (rat skeletal myoblasts) was determined using a 96-well plate format as previously described. Data were analyzed with the graphic program Softmax Pro (Molecular Devices, Sunnyvale, CA, USA), which calculated IC50 values by linear regression from the sigmoidal dose inhibition curves.

The subject of series [2] is L6 cells (rat skeletal myoblasts). Put plainly: Cytotoxicity in the host L6 cells. Particulars: read-out: Cyt. L6 IC50. It counts as cell-based. As to the method:
as §1, §2

In series [3] the test system is T. cruzi, strain Tulahuen C4 amastigotes. Put plainly: In vitro activity against T. cruzi amastigotes in infected L6 cells. Conditions: for IC50: Trypanosoma cruzi, T. cruzi Tulahuen C4 amastigotes in L6 cells, read-out: T. c. IC50; for SI (T. c.): ratio IC50 in L6 cells/IC50 in T. cruzi; for Bnz/comp: ratio of T. cruzi IC50 of benznidazole to that of the compound. Format: cell-based, Trypanosoma cruzi.
Procedure: (§3) In vitro activity against T. cruzi, T. b. rhodesiense, L. donovani and cytotoxicity assessment using L6 cells (rat skeletal myoblasts) was determined using a 96-well plate format as previously described [38]. Data were analyzed with the graphic program Softmax Pro (Molecular Devices, Sunnyvale, CA, USA), which calculated IC50 values by linear regression from the sigmoidal dose inhibition curves.

Series [4] concerns L. donovani axenic, strain MHOM-ET-67/L82 amastigotes. Put plainly: In vitro activity against L. donovani axenic amastigotes. Format: cell-based, Leishmania donovani. Conditions: for IC50: Leishmania donovani, L. donovani axenic amastigotes MHOM-ET-67/L82, read-out: L.d. IC50; for SI (L.d.): ratio IC50 in L6 cells/IC50 in L. donovani; for activity class against L. donovani: L. donovani amastigotes.
Procedure: as §3

The subject of series [5] is TbNTR overexpressing T. b. brucei. Put plainly: microbe, parasite or virus in culture. Format: cell-based, Trypanosoma brucei brucei. Conditions: for Ratio –tet/+tet: IC50 −tet / IC50 +tet; for IC50: Trypanosoma brucei.
Procedure: (§4) To further determine whether NTR plays a role in metabolizing the substrates within the parasite, the above subset of compounds were phenotypically screened against BSF T. b. brucei expressing wild type or elevated levels of TbNTR.
(§5) Where appropriate, induction of the TbNTR was carried out by adding tetracycline (1 μg/mL). After incubation for 3 days at 37 °C, resazurin (2.5 μg per well) was added to each well and the plates incubated for a further 8 h. The cell density of each culture was determined as described before [26] and the IC50 established.
In a further series the test system is T. b. brucei wild type. Put plainly: T. brucei brucei antiproliferating assay, wild type bloodstream form. It counts as cell-based. Particulars: Trypanosoma brucei, 72 h.
Setting [6] is: T.b. rhodesiense STIB 900 trypomastigotes.
Setting [7] is: read-out: IC50 value T.b. brucei TbNTR (+tet).
Where [8] appears, read: read-out: IC50 value T.b. brucei TbNTR (−tet).
[9] abbreviates: read-out: IC50 value T.b. brucei Wild type, BSF, wild type, 3 days.

Procedure for T. b. brucei wild type: as §4, §5

For the compound `Cc1ccc(N2CCN(CC(=O)Nc3ncc([N+](=O)[O-])s3)CC2)cc1` [Compound 2, N-(5-nitrothiazol-2-yl)-2-(4-(p-tolyl)piperazin-1-yl)acetamide], the melting point is 160 to 161 °C (dec.). The IC50 in series [1] (setting [6]) worked out at 14.4 µM. In addition, the “SI (T.b.r.)” value in series [1] came out at 8.8. For the same compound, the IC50 in series [2] came out at 126 µM. Further, in series [3], the IC50 was 9.31 µM, the “SI (T. c.)” value amounted to 14 and the Bnz/comp was 0.2. For the same compound, in series [4], the IC50 was 41.4 µM and the “SI (L.d.)” value stood at 3.

Regarding `O=C(CN1CCN(c2ccc(C(F)(F)F)cc2)CC1)Nc1ncc([N+](=O)[O-])s1` [Compound 3, N-(5-nitrothiazol-2-yl)-2-(4-(4-(trifluoromethyl)phenyl)piperazin-1-yl)acetamide], the melting point lay in the range of 173 to 175 °C. In series [1] (setting [6]), the IC50 came to 8.42 µM. In addition, in series [1], the “SI (T.b.r.)” value is 5.6. The “Ratio –tet/+tet” value in series [5] amounted to 2.8. For the same compound, in series [5] (setting [7]), the IC50 was 0.526 ± 0.024 µM. For the same compound, the IC50 in series [5] (setting [8]) came out at 1.46 ± 0.113 µM. Moreover, the half-inhibitory concentration (IC50) in the series with T. b. brucei wild type (setting [9]) came to 1.02 ± 0.045 µM. For the same compound, in series [2], the IC50 is 47.1 µM. In series [3], the IC50 is 1.73 µM, the “SI (T. c.)” value is recorded as 27 and the Bnz/comp turned out to be 1.3. For the same compound, in series [4], the IC50 is 12.7 µM and the “SI (L.d.)” value is 3.7.

In the case of `COc1ccc(N2CCN(CC(=O)Nc3ncc([N+](=O)[O-])s3)CC2)cc1` [Compound 4, 2-(4-(4-methoxyphenyl)piperazin-1-yl)-N-(5-nitrothiazol-2-yl)acetamide], the melting point was 154 to 156 °C (dec.). Further, the IC50 in series [1] (setting [6]) was 13.8 µM. The “SI (T.b.r.)” value in series [1] is reported as 10. Moreover, the IC50 in series [2] is 143 µM. Besides, in series [3], the IC50 is 3.06 µM and the Bnz/comp is 0.7. For the same compound, in series [4], the IC50 is 68.2 µM and the “SI (L.d.)” value was 2.1.

On to `O=C(CN1CCN(c2ccc(Cl)c(Cl)c2)CC1)Nc1ncc([N+](=O)[O-])s1` [Compound 5, 2-(4-(3,4-dichlorophenyl)piperazin-1-yl)-N-(5-nitrothiazol-2-yl)acetamide], for which the melting point lay in the range of 169 to 171 °C. In addition, in series [1] (setting [6]), the IC50 came to 10.8 µM. The “SI (T.b.r.)” value in series [1] is recorded as 4.2. In addition, in series [5], the “Ratio –tet/+tet” value was found to be 2.6. For the same compound, the IC50 in series [5] (setting [7]) came to 0.747 ± 0.075 µM. The IC50 in series [5] (setting [8]) was found to be 1.96 ± 0.101 µM. The half-maximal inhibitory concentration (IC50) in the series on T. b. brucei wild type (setting [9]) was determined as 1.36 ± 0.091 µM. Further, in series [2], the IC50 came out at 45.7 µM. In series [3], the IC50 came out at 1.53 µM, the “SI (T. c.)” value came to 30 and the Bnz/comp was found to be 1.4. Further, in series [4], the concentration for half-maximal inhibition (IC50) was found to be 7.55 µM and the “SI (L.d.)” value is 6.1.

With `O=C(CN1CCN(C(c2ccccc2)c2ccc(Cl)cc2)CC1)Nc1ncc([N+](=O)[O-])s1` (stereo not shown) [Compound 6, 2-(4-((4-chlorophenyl)(phenyl)methyl)piperazin-1-yl)-N-(5-nitrothiazol-2-yl)acetamide], the melting point was in the range of 92 to 95 °C. The IC50 in series [1] (setting [6]) turned out to be 17.4 µM. The “SI (T.b.r.)” value in series [1] is reported as <1. The “Ratio –tet/+tet” value in series [5] is 2.6. Further, in series [5] (setting [7]), the half-maximal inhibitory concentration (IC50) came out at 0.636 ± 0.022 µM. The IC50 in series [5] (setting [8]) worked out at 1.64 ± 0.069 µM. The IC50 in the series on T. b. brucei wild type (setting [9]) is 1.47 ± 0.104 µM. Moreover, in series [2], the IC50 is 12.9 µM. In series [3], the IC50 worked out at 0.571 µM, the “SI (T. c.)” value is recorded as 23 and the Bnz/comp is 3.8. For the same compound, the “fold less potent against T. cruzi than the corresponding 3-nitrotriazole-based analog” value in series [3] (comparison with analogs of ref 24) is “about 8 fold”. Besides, in series [4], the “activity class against L. donovani” value was “moderately active (between 1.0 and 6.0 μM)”; the IC50 was determined as 3.39 µM; the “SI (L.d.)” value was 3.8.

`O=C(CN1CCN(c2ccccn2)CC1)Nc1ncc([N+](=O)[O-])s1` [Compound 7, N-(5-nitrothiazol-2-yl)-2-(4-(pyridin-2-yl)piperazin-1-yl)acetamide]: the melting point is 175 to 180 °C (dec.). The IC50 in series [1] (setting [6]) was 13.3 µM. The “SI (T.b.r.)” value in series [1] worked out at 2.2. The concentration for half-maximal inhibition (IC50) in series [2] was found to be 29.6 µM. Further, in series [3], the IC50 stood at 4.97 µM, the “SI (T. c.)” value turned out to be 5.9 and the Bnz/comp is recorded as 0.4. In series [4], the 50% inhibitory concentration (IC50) was 64.9 µM and the “SI (L.d.)” value is <1.

For the compound `O=C(Nc1ncc([N+](=O)[O-])s1)c1ccc(-c2ccccc2)cc1` [Compound 8, N-(5-nitrothiazol-2-yl)-[1,1′-biphenyl]-4-carboxamide], the melting point was > 230 °C. In addition, the IC50 in series [1] (setting [6]) turned out to be 14.3 µM. In series [1], the “SI (T.b.r.)” value is listed as <1. Besides, the “Ratio –tet/+tet” value in series [5] is 2.1. In series [5] (setting [7]), the 50% inhibitory concentration (IC50) was found to be 2.18 ± 0.085 µM. Also, in series [5] (setting [8]), the half-inhibitory concentration (IC50) stood at 4.59 ± 0.149 µM. Further, the IC50 in the series on T. b. brucei wild type (setting [9]) was found to be 1.61 ± 0.396 µM. For the same compound, in series [2], the IC50 came out at 6.57 µM. Also, in series [3], the IC50 was 2.52 µM, the “SI (T. c.)” value is 2.6 and the Bnz/comp was determined as 0.9. Also, in series [4], the IC50 came to 104 µM and the “SI (L.d.)” value is recorded as <1.

The compound `O=C(COc1cccc(-c2ccccc2)c1)Nc1ncc([N+](=O)[O-])s1` [Compound 9, 2-([1,1′-biphenyl]-3-yloxy)-N-(5-nitrothiazol-2-yl)acetamide] gave a melting point of 148 to 150 °C. Further, in series [1] (setting [6]), the IC50 was 28.7 µM. Further, in series [1], the “SI (T.b.r.)” value was 1.7. Moreover, the IC50 in series [2] came to 49.4 µM. In series [3], the IC50 worked out at 22.8 µM, the “SI (T. c.)” value worked out at 2.2 and the Bnz/comp is given as 0.1. Besides, in series [4], the “activity class against L. donovani” value is “moderately active (between 1.0 and 6.0 μM)”; the IC50 is 4.27 µM; the “SI (L.d.)” value is given as 12.

In turn, `O=C(COc1cccc(Oc2ccccc2)c1)Nc1ncc([N+](=O)[O-])s1` [Compound 10, N-(5-nitrothiazol-2-yl)-2-(3-phenoxyphenoxy)acetamide] came in with a melting point of 151 to 153 °C. In series [1] (setting [6]), the half-maximal inhibitory concentration (IC50) amounted to 31 µM. The “SI (T.b.r.)” value in series [1] is 1.8. For the same compound, the IC50 in series [2] worked out at 54.9 µM. Also, in series [3], the IC50 was found to be 34.6 µM, the “SI (T. c.)” value was found to be 1.6 and the Bnz/comp turned out to be 0.1. In addition, in series [4], the “activity class against L. donovani” value was “moderately active (between 1.0 and 6.0 μM)”; the 50% inhibitory concentration (IC50) was 5.4 µM; the “SI (L.d.)” value turned out to be 10.

As for `O=C(COc1ccc(-c2ccccc2)cc1)Nc1ncc([N+](=O)[O-])s1` [Compound 11, 2-([1,1′-biphenyl]-4-yloxy)-N-(5-nitrothiazol-2-yl)acetamide], the melting point was in the range of 196 to 198 °C. Moreover, in series [1] (setting [6]), the IC50 amounted to 40.8 µM. Moreover, the “SI (T.b.r.)” value in series [1] is 1.3. Also, in series [5], the “Ratio –tet/+tet” value was 1.5. The half-maximal inhibitory concentration (IC50) in series [5] (setting [7]) came out at 2.2 ± 0.1 µM. Also, in series [5] (setting [8]), the IC50 was 3.25 ± 0.142 µM. Besides, the concentration for half-maximal inhibition (IC50) in the series on T. b. brucei wild type (setting [9]) worked out at 3.75 ± 0.383 µM. Besides, the 50% inhibitory concentration (IC50) in series [2] was determined as 54.9 µM. For the same compound, in series [3], the IC50 was found to be 18.4 µM, the “SI (T. c.)” value was found to be 3 and the Bnz/comp was found to be 0.1. Moreover, in series [4], the IC50 is 10.5 µM and the “SI (L.d.)” value turned out to be 5.2.

With `O=C(COc1ccc(Oc2ccccc2)cc1)Nc1ncc([N+](=O)[O-])s1` [Compound 12, N-(5-nitrothiazol-2-yl)-2-(4-phenoxyphenoxy)acetamide], the IC50 in series [1] (setting [6]) amounted to 28.4 µM; in series [2], 52.7 µM; in series [3], 32.6 µM; in series [4], 5.4 µM. Also, the Bnz/comp in series [3] was 0.1. Also, in series [4], the “activity class against L. donovani” value was “moderately active (between 1.0 and 6.0 μM)”.

As to `Nc1nc(N)nc(Nc2ccc([As]3SCC(CO)S3)cc2)n1` (stereo not shown) [Melars., Melarsoprol, reference compound], the IC50 in series [1] worked out at 0.009 ± 0.001 µM.

As to `CC1CS(=O)(=O)CCN1/N=C/c1ccc([N+](=O)[O-])o1` (stereo not shown) [nfx, nifurtimox, reference compound], the “Ratio –tet/+tet” value in series [5] came out at 7.3. For the same compound, the IC50 in series [5] (setting [7]) worked out at 0.869 ± 0.046 µM; in series [5] (setting [8]) it was 6.36 ± 0.119 µM; in the series on T. b. brucei wild type (BSF, wild type, 3 days, read-out: IC50 value T.b. brucei Wild type), 3.98 ± 0.15 µM.
